From patent US20230233569A1 (Revolution Medicines, Inc., priority 2020, published 2023)

How the values were obtained:
NRAS WT = NRAS WT (Homo sapiens, UniProt P01111+P62937); assay: Disruption of BRAF RBD interaction with Ras (FRET / MOA assay, with Cyclophilin A); format: biochemical; settings: NRAS WT; read-out: NRAS WT FRET data IC50
How it was run: (§1)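 TR-FRET in 25 mM HEPES pH 7.3, 100 mM NaCl, 5 mM MgCl2, 0.1% BSA: 25 μM Cyclophilin A, 12.5 nM His6-Ras-GMPPNP, 50 nM GST-BRAF RBD with compound (10-point 3-fold series from 30 μM), 3 h at 25° C. Anti-His Eu/anti-GST APC added, 1.5 h more; IC50 from decreased FRET ratio versus DMSO.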

KRAS Q61H = KRAS Q61H (Homo sapiens, UniProt P01116+P62937, Q61H); assay: as above; format: biochemical; settings: KRAS Q61H; read-out: KRAS Q61H FRET data IC50
Chain of KRAS Q61H (P01116 1-169 isoform P01116-2 Q61H limits assumed): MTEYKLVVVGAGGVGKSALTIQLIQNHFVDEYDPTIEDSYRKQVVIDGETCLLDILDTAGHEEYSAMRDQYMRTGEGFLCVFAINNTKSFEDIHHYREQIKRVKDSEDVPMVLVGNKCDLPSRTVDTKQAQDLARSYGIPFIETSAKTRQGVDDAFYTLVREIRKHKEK
Chain of KRAS Q61H (P62937 whole entry): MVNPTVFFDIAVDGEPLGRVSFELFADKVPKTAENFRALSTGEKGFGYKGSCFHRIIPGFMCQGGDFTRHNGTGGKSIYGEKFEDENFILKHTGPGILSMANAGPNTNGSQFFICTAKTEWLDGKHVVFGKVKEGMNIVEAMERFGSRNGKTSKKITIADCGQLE
How it was run: as §1

NRAS Q61K = NRAS Q61K (Homo sapiens, UniProt P01111+P62937, Q61K); assay: as above; format: biochemical; settings: NRAS Q61K; read-out: NRAS Q61K FRET data IC50
Chain of NRAS Q61K (P01111 whole entry Q61K): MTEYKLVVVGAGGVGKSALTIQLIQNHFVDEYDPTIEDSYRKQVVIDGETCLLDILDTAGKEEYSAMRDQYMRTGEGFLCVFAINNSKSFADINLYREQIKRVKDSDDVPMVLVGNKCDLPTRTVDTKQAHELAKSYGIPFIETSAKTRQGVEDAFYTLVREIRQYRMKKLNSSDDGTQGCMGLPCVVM
Chain of NRAS Q61K (P62937 whole entry): as the sequence (P62937 whole entry) above
How it was run: as §1

NRAS Q61R = NRAS Q61R (Homo sapiens, UniProt P01111+P62937, Q61R); assay: as above; format: biochemical; settings: NRAS Q61R; read-out: NRAS Q61R FRET data IC50
Chain of NRAS Q61R (P01111 whole entry Q61R): as the sequence (P01111 whole entry Q61K) above, with K61R counted along it
Chain of NRAS Q61R (P62937 whole entry): as the sequence (P62937 whole entry) above
How it was run: as §1

KRAS G13C = KRAS G13C (Homo sapiens, UniProt P01116+P62937, G13C); assay: as above; format: biochemical; settings: read-out: KRAS G13C FRET data, IC50
Chain of KRAS G13C (P01116 1-169 isoform P01116-2 G13C): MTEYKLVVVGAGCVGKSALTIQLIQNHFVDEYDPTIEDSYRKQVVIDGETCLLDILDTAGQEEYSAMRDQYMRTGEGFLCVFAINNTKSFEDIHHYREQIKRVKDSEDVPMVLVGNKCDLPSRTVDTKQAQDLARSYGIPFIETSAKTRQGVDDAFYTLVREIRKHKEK
Chain of KRAS G13C (P62937 whole entry): as the sequence (P62937 whole entry) above
How it was run: (§2)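 Measured via TR-FRET after 3 h at 25 °C with compound (30 μM top, threefold serial steps, ten concentrations) plus K-Ras, Cyclophilin A and BRAF RBD, followed by 1.5 h with anti-His europium (10 nM) and anti-GST allophycocyanin (50 nM). Signal loss versus DMSO gave IC50.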

KRAS G12V = KRAS G12V (Homo sapiens, UniProt P01116+P62937, G12V); assay: as above; format: biochemical; settings: KRAS G12V; read-out: KRAS G12V FRET data IC50
Chain of KRAS G12V (P01116 1-169 isoform P01116-2 G12V limits assumed): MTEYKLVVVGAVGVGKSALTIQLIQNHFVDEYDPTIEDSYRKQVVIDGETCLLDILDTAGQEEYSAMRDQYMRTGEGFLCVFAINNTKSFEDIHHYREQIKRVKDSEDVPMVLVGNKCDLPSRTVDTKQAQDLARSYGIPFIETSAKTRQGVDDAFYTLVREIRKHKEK
Chain of KRAS G12V (P62937 whole entry): as the sequence (P62937 whole entry) above
How it was run: as §2

KRAS G13D = KRAS G13D (Homo sapiens, UniProt P01116+P62937, G13D); assay: as above; format: biochemical; settings: KRAS G13D; read-out: KRAS G13D FRET data IC50
Chain of KRAS G13D (P01116 1-169 isoform P01116-2 G13D limits assumed): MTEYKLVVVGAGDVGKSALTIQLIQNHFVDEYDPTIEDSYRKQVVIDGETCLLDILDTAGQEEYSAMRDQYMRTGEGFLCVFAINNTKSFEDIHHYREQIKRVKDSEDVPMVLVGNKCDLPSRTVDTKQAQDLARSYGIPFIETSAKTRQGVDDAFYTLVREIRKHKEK
Chain of KRAS G13D (P62937 whole entry): as the sequence (P62937 whole entry) above
How it was run: as §2

KRAS WT = KRAS WT (Homo sapiens, UniProt P01116+P62937); assay: as above; format: biochemical; settings: KRAS WT; read-out: KRAS WT FRET data IC50
Chain of KRAS WT (P01116 1-169 isoform P01116-2 limits assumed): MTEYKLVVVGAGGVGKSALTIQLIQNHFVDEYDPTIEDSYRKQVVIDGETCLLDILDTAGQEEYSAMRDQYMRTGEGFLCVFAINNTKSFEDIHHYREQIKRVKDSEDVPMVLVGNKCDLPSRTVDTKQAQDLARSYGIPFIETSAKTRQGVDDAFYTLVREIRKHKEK
Chain of KRAS WT (P62937 whole entry): as the sequence (P62937 whole entry) above
How it was run: as §2

KRAS G12S = KRAS G12S (Homo sapiens, UniProt P01116+P62937, G12S); assay: as above; format: biochemical; settings: read-out: KRAS G12S FRET data, IC50
Chain of KRAS G12S (P01116 1-169 isoform P01116-2 G12S limits assumed): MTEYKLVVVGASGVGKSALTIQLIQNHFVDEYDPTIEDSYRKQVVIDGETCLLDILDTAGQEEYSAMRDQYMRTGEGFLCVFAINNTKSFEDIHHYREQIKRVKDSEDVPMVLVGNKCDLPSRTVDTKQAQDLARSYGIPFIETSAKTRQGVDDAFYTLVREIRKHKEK
Chain of KRAS G12S (P62937 whole entry): as the sequence (P62937 whole entry) above
How it was run: as §2

KRAS G12D = KRAS G12D (Homo sapiens, UniProt P01116+P62937, G12D); assay: as above; format: biochemical; settings: read-out: KRAS G12D FRET data, IC50
Chain of KRAS G12D (P01116 1-169 isoform P01116-2 G12D limits assumed): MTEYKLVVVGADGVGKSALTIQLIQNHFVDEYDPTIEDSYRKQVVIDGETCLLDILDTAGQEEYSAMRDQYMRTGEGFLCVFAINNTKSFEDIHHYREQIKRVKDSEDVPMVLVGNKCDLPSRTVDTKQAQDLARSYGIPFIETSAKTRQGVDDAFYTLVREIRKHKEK
Chain of KRAS G12D (P62937 whole entry): as the sequence (P62937 whole entry) above
How it was run: as §2

KRAS G12C = KRAS G12C (Homo sapiens, UniProt P01116+P62937, G12C); assay: as above; format: biochemical; settings: read-out: KRAS G12C FRET data, IC50
Chain of KRAS G12C (P01116 1-169 isoform P01116-2 G12C): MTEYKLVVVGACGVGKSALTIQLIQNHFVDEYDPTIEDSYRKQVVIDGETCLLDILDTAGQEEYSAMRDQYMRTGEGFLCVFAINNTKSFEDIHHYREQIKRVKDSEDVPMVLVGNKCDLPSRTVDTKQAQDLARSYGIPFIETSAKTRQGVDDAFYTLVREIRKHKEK
Chain of KRAS G12C (P62937 whole entry): as the sequence (P62937 whole entry) above
How it was run: as §2

NRAS G12C = NRAS G12C (Homo sapiens, UniProt P01111+P62937, G12C); assay: as above; format: biochemical; settings: NRAS G12C; read-out: NRAS G12C FRET data IC50
Chain of NRAS G12C (P01111 whole entry G12C): as the sequence (P01111 whole entry Q61K) above, with G12C, K61Q counted along it
Chain of NRAS G12C (P62937 whole entry): as the sequence (P62937 whole entry) above

Capan-1 (K-Ras G12V) = assay: CellTiter-Glo cell viability assay, 5-day treatment; format: cell-based; settings: Homo sapiens, CAPAN-1, 120 h, 5-day treatment; read-out: Capan-1 Cell Viability assay data (K-Ras G12V, IC50)
How it was run: (§3)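 Viability is read as luminescence on day 5 after direct compound addition to plated cells, following about 30 minutes' room-temperature equilibration. Each signal is scaled to mean DMSO as 100%.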

NCI-H358 (K-Ras G12C) = assay: as above; format: cell-based; settings: Homo sapiens, NCI-H358, 120 h, 5-day treatment; read-out: H358 Cell Viability assay data (K-Ras G12C, IC50)
How it was run: as §3

Chain of NRAS WT (P01111 whole entry): as the sequence (P01111 whole entry Q61K) above, with K61Q counted along it
Chain of NRAS WT (P62937 whole entry): as the sequence (P62937 whole entry) above

IC50 (NRAS WT) [nM]	IC50 (KRAS Q61H) [nM]	IC50 (NRAS Q61K) [nM]	IC50 (NRAS Q61R) [nM]	IC50 (KRAS G13C) [nM]	IC50 (KRAS G12V) [nM]	IC50 (KRAS G13D) [nM]	IC50 (KRAS WT) [nM]	IC50 (KRAS G12S) [nM]	IC50 (KRAS G12D) [nM]	IC50 (KRAS G12C) [nM]	IC50 (NRAS G12C) [nM]	IC50 (NCI-H358 (K-Ras G12C)) [nM]	Compound	IC50 (Capan-1 (K-Ras G12V)) [nM]
100 to 1000	100 to 1000	100 to 1000	100 to 1000	100 to 1000	100 to 1000	100 to 1000	100 to 1000	100 to 1000	100 to 1000	100 to 1000	100 to 1000	10 to 100	CCn1c(-c2cccnc2[C@H](C)OC)c2c3cc(ccc31)-c1csc(n1)C[C@H](NC(=O)[C@H]1C[C@@H]1C)C(=O)N1CCC[C@H](N1)C(=O)OCC(C)(C)C2 [Example A286, (1S,2S)—N-((6^3S,4S,Z)-1^1-ethyl-1^2-(2-((S)-1-methoxyethyl)pyridin-3-yl)-10,10-dimethyl-5,7-dioxo-6^1,6^2,6^3,6^4,6^5,6^6-hexahydro-1^1H-8-oxa-2(4,2)-thiazola-1(5,3)-indola-6(1,3)-pyridazinacycloundecaphane-4-yl)-2-methylcyclopropane-1-carboxamide]	100 to 1000
10 to 100	10 to 100	100 to 1000	100 to 1000	100 to 1000	100 to 1000	100 to 1000	10 to 100	100 to 1000	100 to 1000	100 to 1000	100 to 1000	100 to 1000	CCn1c(-c2cccnc2[C@H](C)OC)c2c3cc(ccc31)-c1cc(O)cc(c1)C[C@H](NC(=O)[C@H](C(C)C)N(C)C(=O)[C@H]1C[C@@H]1C)C(=O)N1CCC[C@H](N1)C(=O)OCC(C)(C)C2 [Example A287]	100 to 1000
100 to 1000	100 to 1000	100 to 1000	100 to 1000	100 to 1000	100 to 1000	1000 to 10000	100 to 1000	100 to 1000	1000 to 10000	100 to 1000	100 to 1000	10 to 100	CCn1c(-c2cccnc2[C@H](C)OC)c2c3cc(ccc31)-c1csc(n1)C[C@H](NC(=O)[C@H](C(C)C)N(C)C(=O)N1CC(n3nc(C)cc3C)C1)C(=O)N1CCC[C@H](N1)C(=O)OCC(C)(C)C2 [Example A297]	100 to 1000
100 to 1000	100 to 1000	100 to 1000	100 to 1000	1000 to 10000	1000 to 10000	1000 to 10000	100 to 1000	1000 to 10000	1000 to 10000	100 to 1000	100 to 1000	10 to 100	CCn1c(-c2cccnc2[C@H](C)OC)c2c3cc(ccc31)-c1csc(n1)C[C@H](NC(=O)[C@H](C(C)C)N(C)C(=O)N1CC(C)(OC)C1)C(=O)N1CCC[C@H](N1)C(=O)OCC(C)(C)C2 [Example A299]	100 to 1000
100 to 1000	100 to 1000	100 to 1000	1000 to 10000	100 to 1000	100 to 1000	1000 to 10000	100 to 1000	100 to 1000	1000 to 10000	100 to 1000	100 to 1000	1000 to 10000	CCn1c(-c2cccnc2[C@H](C)OC)c2c3cc(ccc31)-c1csc(n1)C[C@H](NC(=O)C1(F)COC1)C(=O)N1CCC[C@H](N1)C(=O)OCC(C)(C)C2 [Example A320]	100 to 1000
100 to 1000	100 to 1000	100 to 1000	100 to 1000	100 to 1000	100 to 1000	1000 to 10000	100 to 1000	100 to 1000	1000 to 10000	100 to 1000	100 to 1000	100 to 1000	CCn1c(-c2cccnc2[C@H](C)OC)c2c3cc(ccc31)-c1csc(n1)C[C@H](NC(=O)[C@@H](OC(=O)N1CC(OC)C1)C(C)C)C(=O)N1CCC[C@H](N1)C(=O)OCC(C)(C)C2 [Example A354]	100 to 1000
100 to 1000	100 to 1000	100 to 1000	1000 to 10000	100 to 1000	100 to 1000	1000 to 10000	100 to 1000	100 to 1000	1000 to 10000	100 to 1000	100 to 1000	100 to 1000	CCn1c(-c2cccnc2[C@H](C)OC)c2c3cc(ccc31)-c1csc(n1)C[C@H](NC(=O)[C@H]1CCO1)C(=O)N1CCC[C@H](N1)C(=O)OCC(C)(C)C2 [Example A360]	100 to 1000
100 to 1000	100 to 1000	100 to 1000	100 to 1000	100 to 1000	100 to 1000	100 to 1000	100 to 1000	100 to 1000	1000 to 10000	100 to 1000	100 to 1000	100 to 1000	CCn1c(-c2cccnc2[C@H](C)OC)c2c3cc(ccc31)-c1csc(n1)C[C@H](NC(=O)C1CCC1)C(=O)N1CCC[C@H](N1)C(=O)OCC(C)(C)C2 [Example A369]	100 to 1000
1000 to 10000	100 to 1000	100 to 1000	1000 to 10000	1000 to 10000	1000 to 10000	1000 to 10000	1000 to 10000	1000 to 10000	1000 to 10000	100 to 1000	100 to 1000	10 to 100	CCn1c(-c2cccnc2[C@H](C)OC)c2c3cc(ccc31)-c1csc(n1)C[C@H](NC(=O)[C@H](C(C)C)N1CCN(C)C1=O)C(=O)N1CCC[C@H](N1)C(=O)OCC(C)(C)C2 [Example A389]	10 to 100
10 to 100	10 to 100	10 to 100	10 to 100	10 to 100	10 to 100	10 to 100	10 to 100	10 to 100	100 to 1000	10 to 100	10 to 100	100 to 1000	CCn1c(-c2cccnc2[C@H](C)OC)c2c3cc(ccc31)-c1cc(O)cc(c1)C[C@H](NC(=O)[C@H](C(C)C)N(C)C(=O)C1CCC(C3CCCO3)O1)C(=O)N1CCC[C@H](N1)C(=O)OCC(C)(C)C2 (stereo partly drawn) [Example A396]	100 to 1000
10 to 100	10 to 100	10 to 100	10 to 100	10 to 100	10 to 100	100 to 1000	10 to 100	10 to 100	100 to 1000	10 to 100	10 to 100	10 to 100	CCn1c(-c2cccnc2[C@H](C)OC)c2c3cc(ccc31)-c1csc(n1)C[C@H](NC(=O)[C@H](C(C)C)N(C)C(=O)N1CCC(C(=O)C(F)(F)F)CC1)C(=O)N1CCC[C@H](N1)C(=O)OCC(C)(C)C2 [Example A422]	100 to 1000
100 to 1000	100 to 1000	1000 to 10000	100 to 1000	100 to 1000	10 to 100	100 to 1000	100 to 1000	100 to 1000	100 to 1000	100 to 1000	100 to 1000	100 to 1000	CCn1c(-c2cc(N3CCN(C)CC3)cnc2[C@H](C)OC)c2c3cc(ccc31)-c1cc(O)cc(c1)C[C@H](NC(=O)[C@H](C1CCCC1)N(C)C(=O)[C@H]1OCC[C@H]1c1ccccc1)C(=O)N1CCC[C@H](N1)C(=O)OCC(C)(C)C2 [Example A423]	100 to 1000
